Measurements taken from US20090280167A1, “ENHANCEMENT OF DRUG THERAPY BY MIRNA” (Abraxis BioScience, LLC, priority 2008, published 2009).

Tests used:
Format in all cases: cell-based
HT29 cells [1] = assay: miRNA enhancement of oxaliplatin or paclitaxel apoptosis (Apo-ONE Caspase-3/7 Assay); settings: HT29, miRNA 30 nM 48 hours; for Level of apoptosis in paclitaxel treated cells expressing exogenous miRNA: then 7.8 μg/ml paclitaxel 48 hours; for Level of apoptosis in oxaliplatin treated cells expressing exogenous miRNA: then 15.6 μg/ml oxaliplatin 48 hours
Description: A transfection medium was made up by diluting siPORT NeoFx (0.3 μl/well) in OPTI-MEM (16.7 ul/well) in the wells of a microtiter plate and this medium was incubated for 10 minutes at room temperature. A pre-miRNA library was diluted to 1 μM and […] of miRNA was added to each well (30 nM). This mixture was incubated at room temperature for another 10 minutes. HT29 cells were then added at 30,000 cells/well and the plates were incubated 48 hours 37° C.
For treatment with candidate therapeutic agents, the media was aspirated from each well and 200 μl/well of 15.6 μg/ml oxaliplatin, 7.8 μg/ml paclitaxel or negative control solution was added. The plates were incubated for 48 hours 37° C. The Apo-ONE® Homogeneous Caspase-3/7 Assay (Promega, Madison, Wis., USA) was performed on the treated cells. The reactions were performed in duplicate.

HT29 cells [2] = assay: miRNA concentration dependency of 17-AAG synergy; settings: 17-AAG 3.125 ug/ml, miRNA 60, 30, 15, 7.5 nM
Description: To confirm the activity shown in Example 6, the experiment was repeated with constant amount of 17-AAG (3.125 ug/ml) and increasing amount of miRNAs (60, 30, 15, 7.5 nM) used for transfection. […] There were two distinct classes of miRNAs according to activity (one class with high activity: miR454 (SEQ ID NO:2), miR-520c (SEQ ID NO:4) and miR-520d (SEQ ID NO:5); one class with low activity: miR-145 (SEQ ID NO:1) and miR-519a (SEQ ID NO:3)).

HT29 colon cancer line = assay: miRNA library screen for enhancement of 17-AAG apoptotic activity (Apo-ONE caspase); settings: HT29, miRNA transfected 48 hours, then 17-AAG 48 hours, both 1:800 and 1:3200 dilutions of 17-AAG
Description: In order to observe an enhancement of activity in 17-AAG, a miRNA library of 470 Pre-miRNA precursors have been transfected (Ambion, siPORT NeoFx transfection agent) in to the HT29 colon cancer line and followed by 17-AAG treatment. Synthetic ds-miRNAs from the miRNA library were transfected into HT29 cells and incubated for 48 hours at 37° C. Various concentrations of 17-AAG were added to miRNA transfected HT29 cells and incubated for another 48 hours. 100 uL of media was aspirated from each well. Apo-One caspase reagent was prepared by diluting the substrate in buffer in a 1:100 concentration. 100 uL of the reagent was added to each well. Plates were incubated at room temperature for 6 hours. The apoptotic activity was measured by the Fluoroskan plate reader. […] Molecules that synergized at both 1:800 and 1:3200 dilutions of 17-AAG were miR-145, miR-454-3p, miR519a, miR-520c, and miR-520d (SEQ ID NOS:1-5), (FIG. 5, dark background, respectively).

HT29 cells [3] = assay: Apoptotic activity of 17-AAG combined with anticancer agents (Apo-ONE kit); settings: three days after drug treatment
Description: A panel of anticancer chemotherapeutical agents was tested for the enhancement of apoptotic activity with 17-AAG (using the same apoptotic assay system in Example 1), FIG. 4. HT29 cells were treated with various concentration of 17-AGG in the presence or absence of anticancer agents including known HSP70 promoter inducers. Three days after the drug treatment, the apoptotic activity was measured by the Apo-ONE kit (see above). When combined with the anticancer agents, including HSP70 inducers (such as Cisplatin, Etoposide, Doxorubicin, Velcade, Dimethylenastron). […] Some inhibition was also observed for other inducers of HSP70.

Her2 [4] = assay: Confocal imaging of Her2 internalization and degradation; settings: BT474 cells, concentration of IC50, 24 hours, confocal image
Description: 17-AAG treated BT474 cells were examined by the confocal images system. BT474 cells were seeded on the slide and treated at the concentration of IC50 for 24 hours. 17AAG-treated and control BT474 cells were fixed with Methanol, stained with Her2 antibody and analyzed by the confocal image.

Her2 [5] = assay: Her2 suppression assay (anti-Her2 immunostaining, absorbance at 405 nm); settings: BT474 cells, 24-hours treatment
Description: Ten thousand BT474 cells per well were seeded into a microtiter plate and grown for 48 hours. After this preincubation, the BT474 cells treated with various concentrations of 17-AAG and its analogs for 24-hours. At the end of this incubation the media was removed from each well, each well was washed twice with ice-cold Tris buffer saline (containing 0.1% Tween 20) and the cells were fixed with Methanol (ice-cold) at […] for 10 minutes. The fixed BT474 cells were immunostained with anti-Her2 antibody. The presence of Her2 protein was determined by measurement of the absorbance at 405 nm in the plate reader.

colon cancer line HT29 = assay: Apo-ONE Homogeneous Caspase-3/7 assay of 17-AAG apoptotic activity; settings: HT29 cells, 72 hours at 37° C., Caspase-3/7 activity
Source text: The Apo-ONE® Homogeneous Caspase-3/7 Assay (Promega, Madison, Wis.) uses a proprietary lysis/activity buffer, in conjunction with the (Z-DEVD)2-Rhodamine 110 substrate, enables a simple “add-mix-read” format for the detection of caspase-3 and -7 in adherent, suspension, and primary culture cells, or in purified caspase preparations. The assay uses a rhodamine 110-based substrate allows for exquisite sensitivity previously unobtainable with conventional colorimetric or fluorometric assays.
Specifically, 100 μl of Apo-ONE® Caspase-3/7 Reagent was added to each well of a white or black 96-well plate containing 100 μl of blank, control or cells in culture. The plate was covered with a plate sealer for incubating for extended periods (>4 hours). In order to perform this assay in a 384-well plate, a 1:1 volume ratio of Apo-ONE® Caspase-3/7 Reagent to sample was used. The contents of wells were mixed using a plate shaker at 300-500 rpm from 30 seconds and incubated at room temperature for 6 hours. The fluorescence of each well was determined at 485/538 nm (a measure of apoptosis, with the higher ratio indicating more apoptosis).
The apoptotic activity of 17-AAG (17-(Allylamino)-17-demethoxygeldanamycin) was determined in the colon cancer line HT29 using an assay for Caspase-3/7 activity (Apo-ONE kit, Promega). 17-AAG-treated HT29 cells were compared with DMSO-treated control (FIG. 1). […]

Compound	Level of apoptosis in paclitaxel treated cells expressing exogenous miRNA (HT29 cells [1])	Class of activity in synergy with 17-AAG (HT29 cells [2])	Synergy with 17-AAG in apoptotic reading (HT29 colon cancer line)	further results
mir 495: miRNA AAACAAACAUGGUGCACUUCUUU (SEQ ID NO:7) (listed as RNA, chemistry not given here; listed as Homo sapiens)	highest levels of apoptosis	–	–	–
mir 661: miRNA UGCCUGGGUCUCUGGCCUGCGCGU (SEQ ID NO:9) (listed as RNA, chemistry not given here; listed as Homo sapiens)	highest levels of apoptosis	–	–	–
miR-520d: miRNA AAAGUGCUUCUCUUUGGUGGGUU (SEQ ID NO:5) (listed as RNA, chemistry not given here; listed as Homo sapiens)	–	high activity	synergized	Level of apoptosis in oxaliplatin treated cells expressing exogenous miRNA (HT29 cells [1]): highest level of apoptosis
mir 425-3p: miRNA AUCGGGAAUGUCGUGUCCGCC (SEQ ID NO:6) (AUCGGGAAUGUCGUGUCCGCCC; listed as RNA, chemistry not given here; listed as Homo sapiens)	highest levels of apoptosis	–	–	–
miR-520c: miRNA AAAGUGCUUCCUUUUAGAGGGUU (SEQ ID NO:4) (listed as RNA, chemistry not given here; listed as Homo sapiens)	–	high activity	synergized	Level of apoptosis in oxaliplatin treated cells expressing exogenous miRNA (HT29 cells [1]): highest level of apoptosis
CC(C)C[C@H](NC(=O)[C@H](Cc1ccccc1)NC(=O)c1cnccn1)B(O)O [Velcade]	–	–	–	Effect of the added anticancer agent on apoptotic activity of 17-AAG (HT29 cells [3]): strongly inhibited
miR-145: miRNA GUCCAGUUUUCCCAGGAAUCCCUU (SEQ ID NO:1) (listed as RNA, chemistry not given here; listed as Homo sapiens)	–	low activity	synergized	–
mir 572: miRNA GUCCGCUCGGCGGUGGCCCA (SEQ ID NO:8) (listed as RNA, chemistry not given here; listed as Homo sapiens)	highest levels of apoptosis	–	–	–
C=CCNC1=C2C[C@@H](C)C[C@H](OC)[C@H](O)[C@@H](C)/C=C(\C)[C@H](OC(N)=O)[C@@H](OC)/C=C\C=C(/C)C(=O)NC(=CC1=O)C2=O [17-AAG, 17-(Allylamino)-17-demethoxygeldanamycin]	–	–	–	Her2 protein expression and localization after treatment (Her2 [4]): eliminated from its cell surface sub-localization to cytoplasm; IC50 (Her2 [5]): ~0.032 µM; EC50 of apoptosis induction (colon cancer line HT29): 0.07 µg/mL; EC50 (colon cancer line HT29; read-out: EC50 of apoptosis induction): 0.12 µM
miR519a: miRNA AAAGUGCAUCCUUUUAGAGUGUUAC (SEQ ID NO:3) (listed as RNA, chemistry not given here; listed as Homo sapiens)	–	low activity	synergized	–
miR-454-3p: miRNA UAGUGCAAUAUUGCUUAUAGGGUUU (SEQ ID NO:2) (listed as RNA, chemistry not given here; listed as Homo sapiens)	–	high activity	synergized	Level of apoptosis in oxaliplatin treated cells expressing exogenous miRNA (HT29 cells [1]): highest level of apoptosis
